Data from the OPERA property sets (Mansouri et al. 2018).
Values after ≈ are worked out from the molar mass of the structure shown.

Conditions: 20 °C

Row | Structure (SMILES) | solubility [mM]
1 | O=[N+]([O-])OCC(CO[N+](=O)[O-])O[N+](=O)[O-] | 6.08 (≈ 1.38 mg/mL)
2 | O=C1c2c(O)cccc2[C@H]([C@@H]2O[C@H](CO)[C@@H](O)[C@H](O)[C@H]2O)c2cc(CO)cc(O)c21 | 19.8 (≈ 8.3 mg/mL)
3 | O=C1CC2CC[C@H]1C2 | 17.5 (≈ 1.93 mg/mL)

Same assay, conditions: 23 °C

Row | Structure (SMILES) | solubility [mM]
4 | Nc1ccc(N)cc1 | 342 (≈ 37 mg/mL)

Same assay, conditions: 24 °C

Row | Structure (SMILES) | solubility [mM]
5 | Nc1cccc([N+](=O)[O-])c1 | 8.69 (≈ 1.2 mg/mL)

Same assay, conditions: 25 °C

Row | Structure (SMILES) | solubility [mM]
6 | O=C1c2cccc(S(=O)(=O)O)c2C(=O)c2c1cccc2S(=O)(=O)O | 18100 (≈ 6660 mg/mL)
7 | O=C(O)c1ccccc1Cl | 13.3 (≈ 2.09 mg/mL)
8 | NC(=O)c1ccccc1 | 111 (≈ 13.5 mg/mL)
9 | O=C(O)c1cccc(Cl)c1 | 2.87 (≈ 0.45 mg/mL)
10 | C=CC=O | 3780 (≈ 212 mg/mL)
11 | CCN(CC)C(=O)CCC(=O)O | 161 (≈ 27.9 mg/mL)
12 | CCCCCCCCCCC(C(=O)O)C(=O)O | 0.102 (≈ 0.025 mg/mL)
13 | O=C1C[C@@H]2OCC=C3CN4CC[C@]56c7ccccc7N1[C@H]5[C@H]2[C@H]3C[C@H]46 | 0.478 (≈ 0.16 mg/mL)
14 | NC(N)=S | 1870 (≈ 142 mg/mL)
15 | Cc1cc(O)c2c(O)c3c(O)cccc3cc2c1 | 0.874 (≈ 0.21 mg/mL)
16 | CCN1C[C@]2(COC)[C@H](O)C[C@H](OC)[C@]34C1[C@H]([C@H](OC)[C@H]23)[C@]1(OC(C)=O)[C@H]2[C@@H](OC(=O)c3ccccc3)[C@](O)(C[C@H]24)[C@@H](OC)[C@@H]1O | 0.48 (≈ 0.31 mg/mL)
17 | CN1C2CCC1CC(OC(=O)c1ccccc1)C2 (stereo not drawn) | 6.93 (≈ 1.7 mg/mL)
18 | O=Cc1ccccc1[N+](=O)[O-] | 15.4 (≈ 2.32 mg/mL)
19 | O=C1c2cccc(S(=O)(=O)O)c2C(=O)c2cccc(S(=O)(=O)O)c21 | 1810 (≈ 666 mg/mL)
20 | O=C1NS(=O)(=O)c2ccccc21 | 21.8 (≈ 4 mg/mL)
21 | CC[C@H]1C[N@@]2CC[C@H]1C[C@H]2[C@H](O)c1ccnc2ccc(OC)cc12 | 0.888 (≈ 0.29 mg/mL)
22 | CC(=O)Oc1ccc2c3c1O[C@H]1[C@@H](OC(C)=O)C=C[C@H]4[C@@H](C2)N(C)CC[C@@]341 | 1.61 (≈ 0.595 mg/mL)
23 | O=Cc1cccc([N+](=O)[O-])c1 | 10.8 (≈ 1.63 mg/mL)
